According to US20070032545A1, “Antibiotic fki-1778 and process for producing the same” (priority 2004, published 2007):

Experiments:
[1] = test system: nauplius larva of Artemia salina; test: Anti-arthropod activity on nauplius larva in 96-well microplate; type: in vivo; details: observed microscopically after 2 days
Experimental: Next, anti-arthropod activities of antibiotic FKI-1778 10 of the present invention are described hereinbelow. Methanol solution of each antibiotic FKI-1778 was placed in the microplate (96 wells) (Corning Corp., the U.S.). […] The buffer solution 50 μl containing several numbers of nauplius larva of Artemia salina, Arthropod, which was incubated in the buffer solution (Tris 20 mM, sodium chloride 440 mM, magnesium chloride 23 mM, sodium carbonate 1.9 mM, magnesium sulfate 53 mM and calcium chloride 10 mM), was added to each well, and the condition thereof was observed microscopically after 2 days.

[2] = test system: human leukemia cell strain Jurkat cell; test: Cell cycle G1 phase terminating activity, DNA content by flow cytometer; type: cell-based; details: Jurkat cells, 5 μg added to 200 μl medium, 24 hours; for G2/M phase: No addition 22.3; for G1 phase: No addition 53.2
Experimental: Further, a terminating activity of antibiotic FKI-1778 of the present invention against cell cycle G1 phase in cancer cells is explained as follows. Using 96-well microplate (Corning Corp., the U.S.), human leukemia cell strain Jurkat cell, 5×10^5 cells/well, was inoculated into RPMI 1640 medium (IWAKI Corp., Japan) 200 μl containing a mixture of 10% fetal bovine serum and 1% penicillin (10,000 units/ml)—streptomycin (10 mg/ml) (Invitrogen Inc., the U.S.) and cultured. Antibiotic FKI-1778, 5 μg, was added thereto, and the mixture was incubated at 37° C. for 24 hours under 5% CO2 atmosphere, and the culture supernatant was discarded. Cells were suspended in 0.1% aqueous sodium citrate solution (200 μl) containing 0.002% ribonuclease A (Sigma Corp., the U.S.), 0.005% propidium iodide (Sigma Corp., the U.S.) and 0.3 ml/100 ml IGEPAL-CA-630 (Sigma Corp., the U.S.). After the cell suspension was allowed to stand for 2 hours or more, DNA contents in 10,000 cells were measured by using flow cytometer (FACS Calibur, Becton, Dickinson and Company, the U.S.), then DNA contents of cells in G1 phase, S phase and G2/M phase were measured by using software, Cell Quest (Becton, Dickinson and Company, the U.S.).

various microorganisms = test: Growth inhibitory activity against various microorganisms (summary of Table 2); type: cell-based; details: result in words
Description: Next, diameters of inhibition ring of antibiotic FKI-1778A, antibiotic FKI-1778B, antibiotic FKI-1778C and antibiotic FKI-1778D against various microorganisms on the nutrient agar medium are shown in Table 2.

`C=C1CCC2C(C)(CC/C=C(\C)C(=O)O)C(OC(C)=O)CCC2(C)C1Cc1c(O)c(C)c(C)oc1=O` (stereo not shown) [FKI-1778A] gave an Anti-arthropod activity [1] of over 200 µg/mL, a G2/M phase [2] of 12.8% and a G1 phase [2] of 62.4%. The “growth inhibitory activities against various microorganisms” value (from here on “growth inhibitory activities”) (various microorganisms) was “no growth inhibitory activities”.
Molecule `C=C1CCC2C(C)(CC/C=C(\C)CO)C(OC(C)=O)CCC2(C)C1Cc1c(O)c(C)c(C)oc1=O` (stereo not shown) [FKI-1778B] has an Anti-arthropod activity [1] of 100 µg/mL, a G2/M phase [2] of 12.0% and a G1 phase [2] of 55.0%. The “growth inhibitory activities” value (various microorganisms) was “no growth inhibitory activities”.
Work on `C=C(C)C(O)CCC1(C)C(OC(C)=O)CCC2(C)C(Cc3c(O)c(C)c(C)oc3=O)C(=C)CCC12` (stereo not shown) [FKI-1778C] yielded an Anti-arthropod activity [1] of over 200 µg/mL, a G2/M phase [2] of 13.0% and a G1 phase [2] of 64.2%. The “growth inhibitory activities” value (various microorganisms) was “no growth inhibitory activities”.
Work on `C=C1CCC2C(C)(CC/C=C(/C)CO)C(OC(C)=O)CCC2(C)C1Cc1c(O)c(C)c(C)oc1=O` (stereo not shown) [FKI-1778D] yielded an Anti-arthropod activity [1] of 100 µg/mL, a G2/M phase [2] of 9.9% and a G1 phase [2] of 63.9%. For the same molecule, the “growth inhibitory activities” value (various microorganisms) was “no growth inhibitory activities”.
